According to ChEMBL document CHEMBL5532665 (J Med Chem, 2024):
The source made the active and inactive calls. The rule behind the calls is not given here.

Assays:
Mus musculus [1] = assay: Antinociceptive activity in Kunming mouse model assessed as latency of tail withdrawal at 138.8 nmol/kg, sc measured for 60 mins by tail-flick test relative to control; format: functional; conditions: 1 h
Mus musculus [2] = assay: Antinociceptive activity in Kunming mouse model assessed as latency of tail withdrawal at 138.8 nmol/kg, sc measured for 120 mins by tail-flick test relative to control; format: functional; conditions: 2 h
Mus musculus [3] = assay: Antinociceptive activity in Kunming mouse model assessed as latency of tail withdrawal at 138.8 nmol/kg, sc measured for 10 mins by tail-flick test relative to control; format: functional
Mus musculus [4] = assay: Antinociceptive activity in Kunming mouse model assessed as latency of tail withdrawal at 138.8 nmol/kg, sc measured for 30 mins by tail-flick test relative to control; format: functional; conditions: 0.5 h
[5] = target: T1, Kappa-type opioid receptor (Homo sapiens, UniProt P41145); assay: Agonist activity at human KOR expressed in CHO-K1 cells co-expressing G-alpha15 by calcium mobilization assay; format: functional, cell-based; conditions: cho-k1
T1 sequence (P41145 whole entry): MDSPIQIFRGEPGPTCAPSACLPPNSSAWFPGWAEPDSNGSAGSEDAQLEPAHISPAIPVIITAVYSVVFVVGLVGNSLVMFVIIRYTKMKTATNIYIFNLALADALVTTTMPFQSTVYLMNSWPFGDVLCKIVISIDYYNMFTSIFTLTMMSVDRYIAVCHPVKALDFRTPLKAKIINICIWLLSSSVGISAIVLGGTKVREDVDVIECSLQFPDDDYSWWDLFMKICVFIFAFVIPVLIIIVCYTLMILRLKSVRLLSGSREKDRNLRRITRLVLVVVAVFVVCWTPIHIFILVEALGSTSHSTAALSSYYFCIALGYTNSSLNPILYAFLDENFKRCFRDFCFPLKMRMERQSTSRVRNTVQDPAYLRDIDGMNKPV

[6] = target: T2, Delta-type opioid receptor (Homo sapiens, UniProt P41143); assay: Agonist activity at human DOR expressed in CHO-K1 cells co-expressing G-alpha15 by calcium mobilization assay; format: functional, cell-based
T2 sequence (P41143 whole entry): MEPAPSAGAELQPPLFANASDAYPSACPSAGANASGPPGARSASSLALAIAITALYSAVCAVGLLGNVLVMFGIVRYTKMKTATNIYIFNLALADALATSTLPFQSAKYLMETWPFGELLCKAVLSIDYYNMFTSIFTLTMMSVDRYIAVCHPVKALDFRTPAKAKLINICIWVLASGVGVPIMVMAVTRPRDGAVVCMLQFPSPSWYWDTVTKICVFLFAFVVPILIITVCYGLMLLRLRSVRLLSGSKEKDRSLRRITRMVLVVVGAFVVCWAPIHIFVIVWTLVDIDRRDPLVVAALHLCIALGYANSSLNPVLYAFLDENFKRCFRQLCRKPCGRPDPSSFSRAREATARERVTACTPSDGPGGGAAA

Mu-type opioid receptor [7] = target: T3, Mu-type opioid receptor (Homo sapiens, UniProt P35372); assay: Agonist activity at human MOR expressed in CHO-K1 cells co-expressing G-alpha15 by calcium mobilization assay; format: functional, cell-based
T3 sequence (P35372 whole entry): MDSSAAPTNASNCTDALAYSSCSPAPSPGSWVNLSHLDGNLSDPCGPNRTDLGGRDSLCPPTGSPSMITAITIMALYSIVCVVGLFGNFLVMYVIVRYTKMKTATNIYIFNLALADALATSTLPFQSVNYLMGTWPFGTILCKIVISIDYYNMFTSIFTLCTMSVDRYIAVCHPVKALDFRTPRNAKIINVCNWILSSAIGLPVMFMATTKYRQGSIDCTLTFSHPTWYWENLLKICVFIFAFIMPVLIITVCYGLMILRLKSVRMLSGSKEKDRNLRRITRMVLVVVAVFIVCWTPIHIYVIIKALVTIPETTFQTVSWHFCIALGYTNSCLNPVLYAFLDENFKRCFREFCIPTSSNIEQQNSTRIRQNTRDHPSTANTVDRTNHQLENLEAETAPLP

Mu-type opioid receptor [8] = target: T3, Mu-type opioid receptor; assay: Agonist activity at human MOR expressed in CHO-K1 cells co-expressing G-alpha15 by calcium mobilization assay relative to control; format: functional, cell-based; conditions: filed as agonist
[9] = target: T2, Delta-type opioid receptor; assay: Agonist activity at human DOR expressed in CHO-K1 cells co-expressing G-alpha15 by calcium mobilization assay relative to control; format: functional, cell-based; conditions: filed as agonist
[10] = target: T1, Kappa-type opioid receptor; assay: Agonist activity at human KOR expressed in CHO-K1 cells co-expressing G-alpha15 by calcium mobilization assay relative to control; format: functional, cell-based
[11] = target: T1, Kappa-type opioid receptor; assay: Agonist activity at human KOR expressed in CHO-K1 cells co-expressing G-alpha15 upto 100 uM by calcium mobilization assay; format: functional, cell-based
Mus musculus [12] = assay: Antinociceptive activity in Kunming mouse model assessed as latency of tail withdrawal at 1416 nmol/kg, sc measured for 60 mins by tail-flick test relative to control; format: functional; conditions: 1 h
Mus musculus [13] = assay: Antinociceptive activity in Kunming mouse model assessed as latency of tail withdrawal at 1416 nmol/kg, sc measured for 120 mins by tail-flick test relative to control; format: functional; conditions: 2 h
Mus musculus [14] = assay: Antinociceptive activity in Kunming mouse model assessed as latency of tail withdrawal at 1416 nmol/kg, sc measured for 10 mins by tail-flick test relative to control; format: functional
Mus musculus [15] = assay: Antinociceptive activity in Kunming mouse model assessed as latency of tail withdrawal at 1416 nmol/kg, sc measured for 30 mins by tail-flick test relative to control; format: functional; conditions: 0.5 h

Row | SMILES | EC50 ([6]; cho-k1) | EC50 (Mu-type opioid receptor [7]; cho-k1) | Emax (Mu-type opioid receptor [8]) | Emax [9] | further results
1 | NC(=O)[C@H]1CCCN1C(=O)[C@@H]1CC(=O)NCCCC[C@@H](NC(=O)[C@@H](N)Cc2ccc(O)cc2)C(=O)NCCC(=O)N[C@@H](Cc2ccccc2)C(=O)N1 | – | – | – | – | MPE (Mus musculus [1]): 71%; MPE (Mus musculus [2]): 40.6%; MPE (Mus musculus [3]): 45.6%; MPE (Mus musculus [4]): 92.6%
2 | NC(=O)CNC(=O)[C@@H]1CC(=O)NCCCC[C@@H](NC(=O)[C@@H](N)Cc2ccc(O)cc2)C(=O)NCC(=O)N[C@@H](Cc2ccccc2)C(=O)N1 | 623 nM | 113 nM | – | – | EC50 [5]: 9200 nM
3 | NC(=O)[C@H]1CC(=O)NCCCC[C@@H](NC(=O)[C@@H](N)Cc2ccc(O)cc2)C(=O)NCC(=O)N[C@@H](Cc2ccccc2)C(=O)N1 | – | – | 103% | 125% | Emax ([10]; filed as agonist): 85.5%
4 | Cc1ccc(C[C@@H]2NC(=O)CNC(=O)[C@H](NC(=O)[C@@H](N)Cc3ccc(O)cc3)CCCCNC(=O)C[C@H](C(=O)N3CCC[C@H]3C(N)=O)NC2=O)cc1 | – | – | 109% | 115% | Emax ([10]; filed as agonist): 66.7%
5 | NC(=O)[C@@H]1CCCN1C(=O)[C@H]1CC(=O)NCCCC[C@@H](NC(=O)[C@@H](N)Cc2ccc(O)cc2)C(=O)NCC(=O)N[C@@H](CCc2ccccc2)C(=O)N1 | – | – | 99.8% | 66.6% | Activity [11]: inactive
6 | NC(=O)[C@H]1CCCN1C(=O)[C@@H]1CC(=O)NCCCC[C@@H](NC(=O)[C@@H](N)Cc2ccc(O)cc2)C(=O)NCC(=O)N[C@@H](CC2CCCCC2)C(=O)N1 | 804 nM | 43.2 nM | – | – | –
7 | NC(=O)[C@@H]1CCCN1C(=O)[C@H]1CC(=O)NCCCC[C@@H](NC(=O)[C@@H](N)Cc2ccc(O)cc2)C(=O)NCC(=O)N[C@H](Cc2ccccc2)C(=O)N1 | – | – | 104% | 72.8% | MPE (Mus musculus [12]): 55.5%; EC50 [6]: 965 nM; Activity [11]: inactive; MPE (Mus musculus [13]): 28.3%; MPE (Mus musculus [14]): 61.8%; EC50 (Mu-type opioid receptor [7]): 41.6 nM; MPE (Mus musculus [15]): 86.6%
8 | Cc1cc(O)cc(C)c1C[C@H](N)C(=O)N[C@@H]1CCCCNC(=O)C[C@@H](C(=O)N2CCC[C@@H]2C(N)=O)NC(=O)[C@H](Cc2ccccc2)NC(=O)CNC1=O | 1.2 nM | 7.3 nM | – | – | EC50 [5]: 3550 nM
9 | CN1CC(=O)N[C@@H](Cc2ccccc2)C(=O)N[C@H](C(=O)N2CCC[C@@H]2C(N)=O)CC(=O)NCCCC[C@@H](NC(=O)[C@@H](N)Cc2ccc(O)cc2)C1=O | 3030 nM | 1150 nM | – | – | –
10 | NC(=O)[C@H]1CCCN1C(=O)[C@@H]1CC(=O)NCCCC[C@@H](NC(=O)[C@@H](N)Cc2ccc(O)cc2)C(=O)NCC(=O)N[C@@H](Cc2ccccc2)C(=O)N1 | – | – | – | – | MPE (Mus musculus [12]): 63.7%; MPE (Mus musculus [13]): 33.6%; MPE (Mus musculus [14]): 65.5%; MPE (Mus musculus [15]): 91.2%
11 | Cc1cc(O)cc(C)c1C[C@H](N)C(=O)N[C@@H]1CCCCNC(=O)C[C@H](C(=O)N2CCC[C@H]2C(N)=O)NC(=O)[C@H](Cc2ccccc2)NC(=O)CNC1=O | – | – | 101% | 116% | Emax [10]: 39.2%
12 | NC(=O)[C@@H]1CCCN1C(=O)[C@H]1CC(=O)NCCCC[C@@H](NC(=O)[C@@H](N)Cc2ccc(O)cc2)C(=O)NCC(=O)N(Cc2ccccc2)CC(=O)N1 | – | – | 113% | 88.9% | Activity [11]: inactive
13 | NC(=O)[C@H]1CCCN1C(=O)[C@@H]1CC(=O)NCCCC[C@@H](NC(=O)[C@@H](N)Cc2ccc(O)cc2)C(=O)NCC(=O)N(Cc2ccccc2)CC(=O)N1 | 837 nM | 36.1 nM | – | – | –
14 | C[C@@H]1NC(=O)[C@H](NC(=O)[C@@H](N)Cc2ccc(O)cc2)CCCCNC(=O)C[C@H](C(=O)N2CCC[C@H]2C(N)=O)NC(=O)[C@H](Cc2ccccc2)NC1=O | 52 nM | 8.2 nM | 93.7% | 96.6% | MPE (Mus musculus [1]): 70.1%; MPE (Mus musculus [2]): 27.4%; EC50 [5]: 4820 nM; MPE (Mus musculus [3]): 70.9%; Emax ([10]; filed as agonist): 51.4%; MPE (Mus musculus [4]): 88.9%
15 | NC(=O)[C@@H]1CCCN1C(=O)[C@H]1CC(=O)NCCCC[C@@H](NC(=O)[C@@H](N)Cc2ccc(O)cc2)C(=O)NCC(=O)N[C@@H](CC2CCCCC2)C(=O)N1 | – | – | 105% | 54.4% | –
